Converted amounts (≈) assume the structure as drawn.
Columns and labels:
[1] = Aqueous solubility in pH 7.4 PBS buffer at 37 degC incubated for 24 hrs by HPLC method; format: physicochemical; settings: pH 7.4, 24 h
[2] = Partition coefficient, log D of the compound using n-octanol/PBS buffer system at pH 7.4 by HPLC method; format: physicochemical
[3] = test system: CHO; experiment: Cytotoxicity against CHO cells after 48 hrs by MTT assay; format: cell-based; settings: Cricetulus griseus
[4] = test system: Plasmodium falciparum; experiment: microbe, parasite or virus in culture; settings: D10, 48 h
[5] = test system: Plasmodium falciparum; experiment: Resistance index, ratio of IC50 for chloroquine-resistant Plasmodium falciparum Dd2 to IC50 for chloroquine-susceptible Plasmodium falciparum D10; format: functional
[6] = Selectivity index, ratio of IC50 for CHO cells to IC50 for chloroquine-susceptible Plasmodium falciparum D10; format: toxicity, cell-based; settings: hamster, read-out: Ratio IC50
[7] = Aqueous solubility in pH 5.5 PBS buffer at 37 degC incubated for 24 hrs by HPLC method; format: physicochemical; settings: pH 5.5, 24 h
[8] = test system: Plasmodium falciparum; experiment: Antimalarial activity against chloroquine-resistant Plasmodium falciparum Dd2 asexual erythrocyte forms after 48 hrs by parasite LDH assay; format: functional, organism-based; settings: Dd2, 48 h
[9] = Solubility in octanol at pH 5.5; format: physicochemical; settings: buffer
[10] = Partition coefficient, log D of the compound using n-octanol/PBS buffer system at pH 5.5 by HPLC method; format: physicochemical
[11] = Solubility in octanol at pH 7.4; format: physicochemical
[12] = Dissociation constant, pKa of the compound at pH 7.4
[13] = n-octanol/PBS buffer, read-out: logD

Row | Structure (SMILES) | solubility [1] | logD [2, 13] | IC50 [3] [nM] | IC50 [4] [nM] | Ratio IC50 [5] | selectivity ratio [6] | solubility [7] [µM] | IC50 [8] [nM] | solubility [9] [µM] | logD [10, 13] | solubility [11] [µM] | logD ([2]; octanol/water) | logD ([10]; octanol/water) | pKa [12]
1 | Nc1cc(OCCNc2ccnc3cc(Cl)ccc23)nc(N)n1 | 0.23 µM (≈ 0.0761 µg/mL) | 0.9 | 174000 | 230 | 2.6 | 764 | 0.3 (≈ 0.0992 µg/mL) | 580 | 0.15 (≈ 0.0496 µg/mL) | -0.3 | 1.84 (≈ 0.609 µg/mL) |  |  | 
2 | CC(COc1cc(N)nc(N)n1)Nc1ccnc2cc(Cl)ccc12 (stereo unspecified) | 0.25 µM (≈ 0.0862 µg/mL) | 0.92 | 250000 | 243 | 2.3 | 1030 | 1.45 (≈ 0.5 µg/mL) | 543 | 0.07 (≈ 0.0241 µg/mL) | -1.34 | 2.14 (≈ 0.738 µg/mL) |  |  | 
3 | Nc1cc(OCCCNc2ccnc3cc(Cl)ccc23)nc(N)n1 | 0.12 µM (≈ 0.0414 µg/mL) | 1.01 | 107000 | 217 | 2.2 | 494 | 0.31 (≈ 0.107 µg/mL) | 467 | 0.25 (≈ 0.0862 µg/mL) | -0.08 | 1.2 (≈ 0.414 µg/mL) |  |  | 
4 | Nc1cc(OCCOCCNc2ccnc3cc(Cl)ccc23)nc(N)n1 | 0.84 µM (≈ 0.315 µg/mL) | -0.28 | 250000 | 837 | 5 | 303 | 1.17 (≈ 0.439 µg/mL) | 4100 | 0.6 (≈ 0.225 µg/mL) | -0.29 | 0.44 (≈ 0.165 µg/mL) |  |  | 
5 | CCC(COc1cc(N)nc(N)n1)Nc1ccnc2cc(Cl)ccc12 (stereo unspecified) | 0.02 µM (≈ 0.00718 µg/mL) | 2.47 | 156000 | 157 | 1.4 | 995 | 0.04 (≈ 0.0144 µg/mL) | 210 | 0.49 (≈ 0.176 µg/mL) | 1.07 | 5.68 (≈ 2.04 µg/mL) |  |  | 
6 | Nc1cc(NCCNc2ccnc3cc(Cl)ccc23)nc(N)n1 | 0.12 µM (≈ 0.0396 µg/mL) | 0.78 | 190000 | 317 | 3.2 | 607 | 0.52 (≈ 0.171 µg/mL) | 1020 | 0.45 (≈ 0.148 µg/mL) | -0.07 | 0.72 (≈ 0.237 µg/mL) |  |  | 
7 | Nc1cc(NCCCNc2ccnc3cc(Cl)ccc23)nc(N)n1 | 0.62 µM (≈ 0.213 µg/mL) | 0.11 | 255000 | 850 | 1.4 | 308 | 0.88 (≈ 0.303 µg/mL) | 1210 | 0.16 (≈ 0.055 µg/mL) | -0.74 | 0.79 (≈ 0.272 µg/mL) |  |  | 
8 | Nc1cc(NCCCCNc2ccnc3cc(Cl)ccc23)nc(N)n1 | 0.94 µM (≈ 0.336 µg/mL) | 0.49 | 162000 | 580 | 2.2 | 280 | 1.04 (≈ 0.372 µg/mL) | 1260 | 0.19 (≈ 0.068 µg/mL) | -0.74 | 2.91 (≈ 1.04 µg/mL) |  |  | 
9 | Nc1cc(Nc2ccc(Nc3ccnc4cc(Cl)ccc34)cc2)nc(N)n1 | ND(Insoluble) |  | 13800 | 220 | 0.5 | 63 | 0.01 (≈ 0.00378 µg/mL) | 107 |  |  |  | ND(Insoluble) | ND(Insoluble) | 
10 | Nc1cc(N2CCN(c3ccnc4cc(Cl)ccc34)CC2)nc(N)n1 | 0.01 µM (≈ 0.00356 µg/mL) |  | 146000 | 70 | 2.4 | 2070 | 0.66 (≈ 0.235 µg/mL) | 157 | 0.07 (≈ 0.0249 µg/mL) | -0.99 |  | ND(Insoluble) |  | 
11 | CC[C@H]1CN2CCc3cc(OC)c(OC)cc3[C@@H]2C[C@@H]1C[C@H]1NCCc2cc(OC)c(OC)cc21 [EMETINE] |  |  | 125000 |  |  |  |  |  |  |  |  |  |  | 
12 | CCc1nc(N)nc(N)c1-c1ccc(Cl)cc1 [PYRIMETHAMINE] | 0.15 µM (≈ 0.0373 µg/mL) | 1.93 |  | 70 |  |  | 1.16 (≈ 0.289 µg/mL) |  | 6.67 (≈ 1.66 µg/mL) | 0.76 | 12.8 (≈ 3.19 µg/mL) |  |  | 7.36
